Structures can show the parent of a compound that is named as a salt.
Experiments:
[1] = test system: A549 NSCLC cell line; test: Cellular cytotoxicity assay (Alamar Blue), A549; format: cell-based; settings: Homo sapiens, A549; 72 h; only a range over the listed compounds is given; read-out: Cytotoxicity towards A549 NSCLC cell line IC50
Experimental: (§1) The anti-proliferative activity of the chimeric HDAC and protein kinase inhibitory chimeric compounds of the present invention was evaluated using HeLa cervical carcinoma, A549 NSCLC, SKOV3 ovarian carcinoma, Cal27 head and neck cancer, K562 chronic myeloid leukemia (CML) and EOL1 acute hypereosinophilic myeloid leukemia, cell lines. For quantification of cellular proliferation/living cells the Alamar Blue (Resazurin) cell viability assay was applied (O'Brien et al. Eur Biochem. 267, 5421-5426, 2000). In this assay Resazurin is reduced to the fluorescent resorufin by cellular dehydrogenase activity, correlating with viable, proliferating cells. The examples were dissolved as 20 mM solutions in dimethylsulfoxide (DMSO) and subsequently diluted in semi-logarithmic steps. Cell lines were seeded at respective density into 96 well flat bottom plates in a volume of 200 μl per well. 24 h after seeding 1 μl each of the compound dilutions were added into each well of the 96 well plate. Each compound dilution was tested as quadruplicates. Wells containing untreated control cells were filled with […] DMEM medium containing 0.5% v:v DMSO. The cells were then incubated with the substances for 72 h at 37° C. in a humidified atmosphere containing 5% carbon dioxide. To determine the viability of the cells, 20 μl of an Resazurin solution (Sigma; 90 mg/l) were added. After 4 h incubation at 37° C. the fluorescence was measured at an extinction of 544 nm and an emission of 590 nm. For the calculation of the cell viability the emission value from untreated cells was set as 100% viability and the emission rates of treated cells were set in relation to the values of untreated cells. Viabilities were expressed as % values. The corresponding IC50 values of the compounds for cytotoxic activity are determined from the concentration-effect curves by means of non-linear regression.

[2] = target: T1, recombinant HDAC1 isolated from HEK293 cells with heterologous HDAC1 expression (Homo sapiens, UniProt Q13547); test: Fluorimetric rHDAC1 activity assay; format: biochemical; settings: only a range of IC50 over the compounds given; read-out: rHDAC1 inhibitory activity IC50
T1 construct: made in house
T1 sequence (Q13547 whole entry): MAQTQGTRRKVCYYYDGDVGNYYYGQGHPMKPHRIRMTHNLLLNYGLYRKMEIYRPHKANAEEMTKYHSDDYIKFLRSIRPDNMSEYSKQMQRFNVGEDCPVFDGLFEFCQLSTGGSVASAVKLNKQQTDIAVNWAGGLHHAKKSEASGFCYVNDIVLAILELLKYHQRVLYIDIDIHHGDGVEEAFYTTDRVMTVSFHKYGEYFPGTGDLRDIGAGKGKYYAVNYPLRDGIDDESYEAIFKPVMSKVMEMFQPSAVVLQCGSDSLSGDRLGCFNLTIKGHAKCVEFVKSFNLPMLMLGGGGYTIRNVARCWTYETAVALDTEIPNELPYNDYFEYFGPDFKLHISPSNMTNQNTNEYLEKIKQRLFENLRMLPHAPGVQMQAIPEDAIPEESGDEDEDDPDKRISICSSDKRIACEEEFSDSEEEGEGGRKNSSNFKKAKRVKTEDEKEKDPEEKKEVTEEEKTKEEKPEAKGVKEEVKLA

[3] = test system: HeLa cervical carcinoma cell line; test: Cellular cytotoxicity assay (Alamar Blue), HeLa; format: cell-based; settings: Homo sapiens, 72 h, only a range over the listed compounds is given, read-out: Cytotoxicity towards HeLa cervical cell line IC50
Experimental: as §1

[4] = test system: SKOV3 ovarian carcinoma cell line; test: Cellular cytotoxicity assay (Alamar Blue), SKOV3; format: cell-based; settings: Homo sapiens, SK-OV-3; 72 h; only a range over the listed compounds is given; read-out: Cytotoxicity towards SKOV3 cell line IC50
Experimental: as §1

| melting point [°C] | IC50 [2] [µM] | SMILES | IC50 [1] [µM] | other results |
| --- | --- | --- | --- | --- |
| 222.3 |  | Nc1ccccc1NC(=O)c1ccc(C(=O)Nc2cccc(Nc3nc(-c4cccnc4)cs3)c2)s1 (as salt: salt) [[28], N^2-(2-aminophenyl)-N^5-(3-(4-(pyridin-3-yl)thiazol-2-ylamino)phenyl)thiophene-2,5-dicarboxamide] |  |  |
| 224.8 to 224.9 |  | Nc1ccccc1NC(=O)c1ccc(C(=O)Nc2cccc(Nc3nc(-c4cccnc4)cs3)c2)cc1 (hydrate or solvate) [[18], N^1-(2-aminophenyl)-N^4-(3-(4-(pyridin-3-yl)thiazol-2-ylamino)phenyl)terephthalamide hydrate] |  |  |
|  | ≥ 0.0353 | Nc1ccccc1NC(=O)/C=C/c1ccc(-c2ccc3ncnc(Nc4ccc(OCc5cccc(F)c5)c(Cl)c4)c3c2)cc1 [[10], (E)-N-(2-aminophenyl)-3-(4-(4-(3-chloro-4-(3-fluorobenzyloxy)phenylamino)quinazolin-6-yl)phenyl)acrylamide] | ≥ 1.1 |  |
|  | ≥ 0.0353 | Nc1ccccc1NC(=O)CCc1ccc(-c2ccc3ncnc(Nc4ccc(OCc5cccc(F)c5)c(Cl)c4)c3c2)cc1 [[12], N-(2-aminophenyl)-3-(4-(4-(3-chloro-4-(3-fluorobenzyloxy)phenylamino)quinazolin-6-yl)phenyl)propanamide] | ≥ 1.1 |  |
|  | ≥ 0.0353 | Nc1ccccc1NC(=O)/C=C/c1ccc(-c2ccc3ncnc(Nc4ccc(OCc5cccc(F)c5)c(Cl)c4)c3c2)o1 [[13], (E)-N-(2-aminophenyl)-3-(5-(4-(3-chloro-4-(3-fluorobenzyloxy)phenylamino)quinazolin-6-yl)furan-2-yl)acrylamide] | ≥ 1.1 |  |
| 205.5 |  | O=C(NO)c1ccc(C(=O)Nc2cccc(Nc3nc(-c4cccnc4)cs3)c2)cc1 [[17], N^1-hydroxy-N^4-(3-(4-(pyridin-3-yl)thiazol-2-ylamino)phenyl)terephthalamide] | ≥ 2.95 |  |
| 147.1 |  | Cc1ccc(NC(=O)c2ccc(C(=O)Nc3ccccc3N)cc2)cc1Nc1nc(-c2cccnc2)cs1 [[21], N^1-(2-aminophenyl)-N^4-(4-methyl-3-(4-(pyridin-3-yl)thiazol-2-ylamino)phenyl)terephthalamide] |  |  |
| 100.6 | 0.077 to 1.4 | O=C(/C=C/c1ccc(C(=O)Nc2cccc(Nc3nc(-c4cccnc4)cs3)c2)cc1)NO [[22], (E)-4-(3-(hydroxyamino)-3-oxoprop-1-enyl)-N-(3-(4-(pyridin-3-yl)thiazol-2-ylamino)phenyl)benzamide] |  |  |
| 150.5 to 152.5 |  | Cc1ccc(NC(=O)c2ccc(C(=O)Nc3ccccc3N)nc2)cc1Nc1nccc(-c2cccnc2)n1 [[23], N^2-(2-aminophenyl)-N^5-(4-methyl-3-(4-(pyridin-3-yl)pyrimidin-2-ylamino)phenyl)pyridine-2,5-dicarboxamide] |  |  |
| 242.4 |  | Cc1ccc(NC(=O)c2ccc(C(=O)Nc3ccccc3N)s2)cc1Nc1nc(-c2cccnc2)cs1 [[27], N^2-(2-aminophenyl)-N^5-(4-methyl-3-(4-(pyridin-3-yl)thiazol-2-ylamino)phenyl)thiophene-2,5-dicarboxamide] |  |  |
|  |  | Nc1ccccc1NC(=O)c1ccc(C(=O)Nc2cccc(Nc3nccc(-c4cccnc4)n3)c2)cc1 [[31], N-(2-Amino-phenyl)-N′-[3-(4-pyridin-3-yl-pyrimidin-2-ylamino)-phenyl]-terephthalamide] | ≥ 2.95 |  |
|  |  | Nc1ccccc1NC(=O)c1ccc(C(=O)Nc2ccc(Cl)c(Nc3nccc(-c4cccnc4)n3)c2)cc1 [[32], N-(2-Amino-phenyl)-N′-[4-chloro-3-(4-pyridin-3-yl-pyrimidin-2-ylamino)-phenyl]-terephthalamide compound with hydrochloric acid] | ≥ 2.95 |  |
| 205.6 |  | O=C(/C=C/c1ccc(C(=O)Nc2cccc(Nc3nc(-c4cccnc4)cs3)c2)s1)NO [[34], (E)-5-(3-(hydroxyamino)-3-oxaprop-1-enyl)-N-(3-(4-(pyridin-3-yl)thiazol-2-ylamino)phenyl)thiophene-2-carboxamide] | ≥ 2.95 |  |
| 253 to 258 |  | C#Cc1cccc(Nc2ncnc3ccc(NC(=O)c4ccc(C(=O)Nc5ccccc5N)cc4)cc23)c1 [[37], N-(2-Amino-phenyl)-N′-[4-(3-ethynyl-phenylamino)-quinazolin-6-yl]-terephthalamide] | ≥ 0.24 | IC50 [3]: ≥ 0.5 µM; IC50 [4]: ≥ 0.56 µM |
|  |  | C#Cc1cccc(Nc2ncnc3ccc(NC(=O)c4ccc(C(=O)Nc5ccccc5N)s4)cc23)c1 [[38], Thiophene-2,5-dicarboxylic acid 2-[(2-amino-phenyl)-amide]-5-{[4-(3-ethynyl-phenylamino)-quinazolin-6-yl]-amide}] | ≥ 0.24 | IC50 [3]: ≥ 0.5 µM; IC50 [4]: ≥ 0.56 µM |
|  |  | C#Cc1cccc(Nc2ncnc3cc(NC(=O)c4ccc(C(=O)Nc5ccccc5N)cc4)ccc23)c1 [[41], N-(2-Amino-phenyl)-N′-[4-(3-ethynyl-phenylamino)-quinazolin-7-yl]-terephthalamide] |  | IC50 [4]: ≥ 0.56 µM |
| 190 to 194.2 | ≥ 0.0065 | C#Cc1cccc(Nc2ncnc3cc(NC(=O)c4cccc(/C=C/C(=O)Nc5ccccc5N)c4)ccc23)c1 [[42], (E)-3-(3-(2-aminophenylamino)-3-oxoprop-1-enyl)-N-(4-(3-ethynylphenylamino)quinazolin-7-yl)benzamide] |  |  |
| 215 to 218 |  | Nc1ccccc1NC(=O)c1ccc(COc2ccc3ncnc(Nc4cccc(Br)c4)c3c2)cc1 [[43], N-(2-aminophenyl)-4-((4-(3-bromophenylamino)quinazolin-6-yloxy)-methyl)benzamide] |  |  |
|  | ≥ 0.0065 | C#Cc1cccc(Nc2ncnc3ccc(OCc4ccc(C(=O)Nc5ccccc5N)cc4)cc23)c1 [[44], N-(2-aminophenyl)-4-((4-(3-ethynylphenylamino)quinazolin-6-yloxy)methyl)benzamide] |  |  |
